From patent US20130204033A1, “ANTIPROLIFERATIVE COMPOUNDS, CONJUGATES THEREOF, METHODS THEREFOR, AND USES THEREOF” (Medarex, Inc., priority 2009, published 2013)
Read-outs that look alike come from different tables or passages of the source.

How the values were obtained:
Type in all cases: cell-based, human
UO-31 = assay: ATP luminescence proliferation assay, UO-31; settings: Homo sapiens
Description: (§1) This example generally describes the procedures used to assay the antiproliferative activity of compounds of this invention or their conjugates. Human tumor cell lines were obtained from the American Type Culture Collection (ATCC), P.O. Box 1549, Manassas, Va. 20108, USA, and cultured according to instruction from the ATCC. Cells were seeded at 1.0×10^3 or 1.0×10^4 cells/well in 96-well plates for 3 h for ATP assays or ^3H thymidine assays, respectively. 1:3 serial dilutions of free (unconjugated) compounds or their conjugates were added to the wells. Plates were allowed to incubate for 24 to 72 h. The ^3H thymidine plates were pulsed with 1.0 μCi of ^3H-thymidine per well for the last 24 hours of the total incubation period, harvested, and read on a Top Count Scintillation Counter (Packard Instruments, Meriden, Conn.). ATP levels in the ATP plates were measured using the […]-GLO® Luminescent Cell Viability kit following the manufacturer's manual and read on a GLOMAX® 20/20 luminometer (both from Promega, Madison, Wis., USA). The EC50 values—the concentration at which an agent inhibits or reduces cell proliferation by 50% —were determined using PRISM™ software, version 4.0 (GraphPad Software, La Jolla, Calif., USA).
(§2) Using the ^3H thymidine or the ATP luminescence assay, or both, the activities of compounds of this invention were assayed against the following cancer cell lines: HCT-15 (colorectal cancer, multi-drug resistant (MDR)); Hep3B (liver cancer); LNCaP (prostate cancer, androgen receptor positive (AR^+)); MDA-MB-231 (breast cancer, estrogen receptor, progesterone receptor, and Her2 negative (triple negative)); A2058 (melanoma); U-87 MG (glioblastoma); NCI-H460 (NSCLC); A549 (NSCLC); HPAC (pancreatic cancer, primary); PC3 (prostate cancer, AR); BT474 (breast cancer, Her2 highly positive (Her2hi)); SKOV3 (ovarian cancer, Her2hi); 786-O (renal cancer); UO-31 (renal cancer, MDR); NCI-H740 (SCLC); DMS53 (SCLC); SK-BR3 (breast cancer, Her2hi); ZR-75 (breast cancer, estrogen receptor positive); OVCAR3 (ovarian cancer); HL-60 (APL); OVCAR8/Adr (ovarian cancer, MDR); CEM-Cl (ALL); Nomo-1 (AML); RPMI-8226 (MM)); Raji (lymphoma); SW-480 (colorectal cancer, metastatic); SW-620 (colorectal cancer); and H226 (lung cancer). (Not all compounds were assayed against all cell lines.)
(§3) Table 3 provides the data for the ATP luminescence proliferation assays, with an incubation period of 48, 72, or 96 h, as noted.

SW-620 = assay: ATP luminescence proliferation assay, SW-620; settings: Homo sapiens
Description: as §1, §2, §3

RPMI-8226 = assay: ATP luminescence proliferation assay, RPMI-8226; settings: Homo sapiens
Description: as §1, §2, §3

PC3 = assay: ATP luminescence proliferation assay, PC3; settings: Homo sapiens
Description: as §1, §2, §3

CEM-C1 = assay: 3H thymidine proliferation assay, CEM-C1; settings: Homo sapiens
Description: as §1, §2
(§4) Table 2 provides the data for proliferation assays using the ^3H thymidine method, with an incubation period of 72 h.

Raji = assay: ATP luminescence proliferation assay, Raji; settings: Homo sapiens
Description: as §1, §2, §3

U-87 MG [1] = assay: ATP luminescence proliferation assay, U-87 MG; settings: Homo sapiens
Description: as §1, §2, §3

786-O = assay: ATP luminescence proliferation assay, 786-O; settings: Homo sapiens
Outline: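 Cells seeded at 1.0×10^3 cells/well for 3 h, then exposed to 1:3 serial dilutions of free compounds or conjugates for 48, 72 or 96 h, as noted. ATP measured by luminescent cell viability kit; EC50 taken as concentration reducing proliferation by 50%.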

OVCAR3 = assay: ATP luminescence proliferation assay, OVCAR3; settings: Homo sapiens
Outline: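 Cells seeded at 1.0×10^3 cells/well for 3 h, then exposed to 1:3 serial dilutions of free compounds or conjugates for 48, 72 or 96 h as noted. ATP measured by Glo luminescent viability kit; EC50 taken as concentration reducing proliferation by 50%.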

HCT-15 = assay: 3H thymidine proliferation assay, HCT-15; settings: Homo sapiens
Description: as §1, §2, §4

ZR-75 = assay: 3H thymidine proliferation assay, ZR-75; settings: Homo sapiens
Description: as §1, §2, §4

NCI-H460 = assay: 3H thymidine proliferation assay, NCI-H460; settings: Homo sapiens
Description: as §1, §2, §4

MDA-MB-231 = assay: 3H thymidine proliferation assay, MDA-MB-231; settings: Homo sapiens
Description: as §1, §2, §4

Hep3B = assay: 3H thymidine proliferation assay, Hep3B; settings: Homo sapiens, Hep3B
Description: as §1, §2, §4

U-87 MG [2] = assay: 3H thymidine proliferation assay, U-87 MG; settings: Homo sapiens, U-87 MG
Description: as §1, §2, §4

SK-BR3 = assay: ATP luminescence proliferation assay, SK-BR3; settings: Homo sapiens
Description: as §1, §2, §3

A549 = assay: 3H thymidine proliferation assay, A549; settings: Homo sapiens
Description: as §1, §2, §4

SKOV3 = assay: 3H thymidine proliferation assay, SKOV3; settings: Homo sapiens
Description: as §1, §2, §4

[3] = UO-31, 48 h, read-out: EC50 UO-31 (48 h), ATP luminescence, UO-31, 48 h incubation
[4] = SW-620, 96 h, read-out: EC50 SW-620 (96 h), ATP luminescence, SW-620, 96 h incubation
[5] = RPMI-8226, 72 h, read-out: EC50 RPMI-8226 (72 h), ATP luminescence, RPMI-8226, 72 h incubation
[6] = PC-3, 48 h, read-out: EC50 PC3 (48 h), ATP luminescence, PC3, 48 h incubation
[7] = CEM/C1, read-out: EC50, CEM-C1, 3H thymidine method, 72 h incubation
[8] = 72 h, read-out: EC50 Raji (72 h), ATP luminescence, Raji, 72 h incubation
[9] = 72 h, read-out: EC50 U-87 MG (72 h), ATP luminescence, U-87 MG, 72 h incubation
[10] = 786-0, 72 h, read-out: EC50 786-O (72 h), ATP luminescence, 786-O, 72 h incubation
[11] = OVCAR-3, 48 h, read-out: EC50 OVCAR3 (48 h), ATP luminescence, OVCAR3, 48 h incubation
[12] = HCT-15, read-out: EC50, HCT-15, 3H thymidine method, 72 h incubation
[13] = ZR75, read-out: EC50, ZR-75, 3H thymidine method, 72 h incubation
[14] = NCI-H460, read-out: EC50, NCI-H460, 3H thymidine method, 72 h incubation
[15] = MDA-MB-231, read-out: EC50, MDA-MB-231, 3H thymidine method, 72 h incubation
[16] = read-out: EC50, Hep3B, 3H thymidine method, 72 h incubation
[17] = read-out: EC50, U-87 MG, 3H thymidine method, 72 h incubation
[18] = SK-BR-3, 48 h, read-out: EC50 SK-BR3 (48 h), ATP luminescence, SK-BR3, 48 h incubation
[19] = A549, read-out: EC50, A549, 3H thymidine method, 72 h incubation
[20] = SK-OV-3, read-out: EC50, SKOV3, 3H thymidine method, 72 h incubation

Structure (SMILES) | EC50 (UO-31; [3]) [nM] | EC50 (SW-620; [4]) [nM] | EC50 (RPMI-8226; [5]) [nM] | EC50 (PC3; [6]) [nM] | EC50 (CEM-C1; [7]) [nM] | EC50 (Raji; [8]) [nM] | EC50 (U-87 MG [1]; [9]) [nM] | EC50 (786-O; [10]) [nM] | EC50 (OVCAR3; [11]) [nM] | EC50 (HCT-15; [12]) [nM] | EC50 (ZR-75; [13]) [nM] | EC50 (NCI-H460; [14]) [nM] | EC50 (MDA-MB-231; [15]) [nM] | EC50 (Hep3B; [16]) [nM] | EC50 (U-87 MG [2]; [17]) [nM] | EC50 (SK-BR3; [18]) [nM] | EC50 (A549; [19]) [nM] | EC50 (SKOV3; [20]) [nM] | further results
Nc1ccc(C(=O)Nc2ccc3[nH]c(C(=O)N4C[C@@H](CCl)c5c4cc(O)c4ccccc54)cc3c2)cc1 [CBI, reference compound] | – | – | – | – | – | – | – | – | – | – | – | – | – | – | – | – | – | – | EC50 (UO-31; ATP luminescence, UO-31, 48 h incubation, read-out: EC50 UO-31 (48 h)): 4.2 nM; EC50 (SW-620; ATP luminescence, SW-620, 96 h incubation, read-out: EC50 SW-620 (96 h)): 0.33 nM; EC50 (RPMI-8226; ATP luminescence, RPMI-8226, 72 h incubation, read-out: EC50 RPMI-8226 (72 h)): 4.1 nM; EC50 (PC3; PC-3, ATP luminescence, PC3, 48 h incubation, read-out: EC50 PC3 (48 h)): 12 nM; EC50 (CEM-C1; CEM/C1, 3H thymidine method, 72 h incubation, read-out: EC50, CEM-C1): 0.11 nM; EC50 (Raji; ATP luminescence, 72 h incubation, read-out: EC50 Raji (72 h)): 2.1 nM; EC50 (U-87 MG [1]; ATP luminescence, 72 h incubation, read-out: EC50 U-87 MG (72 h)): 3.3 nM; EC50 (786-O; 786-0, ATP luminescence, 786-O, 48 h incubation, read-out: EC50 786-O (48 h)): 1.6 nM; EC50 (OVCAR3; OVCAR-3, ATP luminescence, OVCAR3, 48 h incubation, read-out: EC50 OVCAR3 (48 h)): 4.1 nM; EC50 (HCT-15; HCT-15, 3H thymidine method, 72 h incubation, read-out: EC50, HCT-15): 0.04 nM; EC50 (ZR-75; ZR75, 3H thymidine method, 72 h incubation, read-out: EC50, ZR-75): 1.5 nM; EC50 (NCI-H460; NCI-H460, 3H thymidine method, 72 h incubation, read-out: EC50, NCI-H460): 0.042 nM; EC50 (MDA-MB-231; MDA-MB-231, 3H thymidine method, 72 h incubation, read-out: EC50, MDA-MB-231): 0.019 nM; EC50 (Hep3B; 3H thymidine method, 72 h incubation, read-out: EC50, Hep3B): 0.02 nM; EC50 (U-87 MG [2]; 3H thymidine method, 72 h incubation, read-out: EC50, U-87 MG): 0.14 nM; EC50 (SK-BR3; SK-BR-3, ATP luminescence, SK-BR3, 72 h incubation, read-out: EC50 SK-BR3 (72 h)): 3.1 nM; EC50 (A549; A549, 3H thymidine method, 72 h incubation, read-out: EC50, A549): 0.072 nM; EC50 (SKOV3; SK-OV-3, 3H thymidine method, 72 h incubation, read-out: EC50, SKOV3): 0.047 nM
CCCC(NC(=O)c1csc([C@@H](C[C@H](C(C)C)N(C)C(=O)[C@@H](NC(=O)[C@H]2CCCCN2C)[C@@H](C)CC)OC)n1)C(=O)OC (stereo partly drawn) [Compound 17] | > 100 | 65 | 15 | > 100 | 43 | 27 | 22 | 73 | > 100 | 392 | > 100 | > 100 | 84 | > 100 | 12 | 24 | > 100 | 91 | –
CC[C@H](C)[C@H](NC(=O)[C@H]1CCCCN1C)C(=O)N(C)[C@H](C[C@@H](OC)c1nc(C(=O)N[C@@H](Cc2ccccc2)C(=O)N[C@@H](C)C(=O)OC)cs1)C(C)C [Compound 24] | 13 | 10 | 8.4 | 13 | 13 | 7.9 | 18 | 36 | 29 | 704 | 3.6 | > 100 | 33 | 32 | 18 | 8.9 | 38 | 68 | –
CC[C@H](C)[C@H](NC(=O)[C@H]1CCCCN1C)C(=O)N(C)[C@H](C[C@@H](OC)c1nc(C(=O)N[C@H](CC(=O)OC)Cc2ccccc2)cs1)C(C)C [Compound 25] | 759 | 193 | 235 | 155 | 225 | 209 | 357 | 306 | > 3000 | 280 | > 3000 | 306 | 236 | 305 | 271 | > 3000 | 270 | 180 | –
CC[C@H](C)[C@H](NC(=O)[C@H]1CCCCN1C)C(=O)N(C)[C@H](C[C@@H](OC)c1nc(C(=O)N[C@H](CCC(=O)OC)Cc2ccccc2)cs1)C(C)C [Compound 26] | 240 | 48 | – | > 3000 | 22 | 46 | 94 | 126 | – | 31 | > 300 | 18 | 15 | 18 | 5.2 | 253 | 18 | 4.6 | EC50 (RPMI-8226; RPMI-8226, 48 h, read-out: EC50 RPMI-8226 (48 h), ATP luminescence, RPMI-8226, 48 h incubation): 45 nM; EC50 (OVCAR3; OVCAR-3, 72 h, read-out: EC50 OVCAR3 (72 h), ATP luminescence, OVCAR3, 72 h incubation): 49 nM
